From US8952024B2, “Herbicidal pyrimidone derivatives” (E I du Pont de Nemours and Company, priority 2009, dated 2015)

System: velvetleaf (Abutilon theophrasti)
Assay: Test A pre-/postemergence plant response
Assay type: in vivo
Settings: Postemergence, 125 g ai/ha; 0 to 100 scale where 0 is no effect and 100 is complete control
In short: (§1)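 Pre: directed soil spray on seeded loam/sand blend. Post: same formulation (non-phytotoxic solvent + surfactant) on 2–10 cm plants, 1–2 leaf stage. Greenhouse ~10 d; visual injury score 0–100 vs untreated.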

Row | Compound | Plant response rating, Velvetleaf
1 | Cc1cccc(-c2ncc(C(=O)C3=C(O)CCCC3=O)c(=O)n2-c2ccccc2C)c1 [Compound 210] | 70

Same assay, conditions: Postemergence, 500 g ai/ha; visual injury, 0 to 100 scale (0 no effect, 100 complete control), approx. ten days

Row | Compound | Velvetleaf plant response rating
2 | Cc1cccc(-c2ncc(C(=O)C3=C(O)CCCC3=O)c(=O)n2-c2ccccc2C)c1 [Compound 210] | 70

Same assay, conditions: Preemergence, 125 g ai/ha; 0 to 100 scale, 0 = no effect, 100 = complete control

Row | Compound | Plant response rating, Velvetleaf
3 | Cc1cccc(-c2ncc(C(=O)C3=C(O)CCCC3=O)c(=O)n2-c2ccccc2C)c1 [Compound 210] | 40

Same assay, conditions: Preemergence, 500 g ai/ha; 0 to 100 scale, 0 = no effect, 100 = complete control

Row | Compound | Plant response rating, Velvetleaf
4 | Cc1cccc(-c2ncc(C(=O)C3=C(O)CCCC3=O)c(=O)n2-c2ccccc2C)c1 [Compound 210] | 60

System: wheat (Triticum aestivum)
Assay: Test A pre-/postemergence plant response
Assay type: in vivo
Settings: Postemergence, 125 g ai/ha; 0 to 100 scale where 0 is no effect and 100 is complete control
In short: as §1

Row | Compound | Plant response rating, Wheat
5 | Cc1cccc(-c2ncc(C(=O)C3=C(O)CCCC3=O)c(=O)n2-c2ccccc2C)c1 [Compound 210] | 0

Same assay, conditions: Postemergence, 500 g ai/ha; visual injury, 0 to 100 scale (0 no effect, 100 complete control), approx. ten days

Row | Compound | Wheat plant response rating
6 | Cc1cccc(-c2ncc(C(=O)C3=C(O)CCCC3=O)c(=O)n2-c2ccccc2C)c1 [Compound 210] | 10

Same assay, conditions: Preemergence, 125 g ai/ha; 0 to 100 scale, 0 = no effect, 100 = complete control

Row | Compound | Plant response rating, Wheat
7 | Cc1cccc(-c2ncc(C(=O)C3=C(O)CCCC3=O)c(=O)n2-c2ccccc2C)c1 [Compound 210] | 0

Same assay, conditions: Preemergence, 500 g ai/ha; 0 to 100 scale, 0 = no effect, 100 = complete control

Row | Compound | Plant response rating, Wheat
8 | Cc1cccc(-c2ncc(C(=O)C3=C(O)CCCC3=O)c(=O)n2-c2ccccc2C)c1 [Compound 210] | 0

System: barnyardgrass (Echinochloa crus-galli)
Assay: Test B flooded paddy test
Assay type: in vivo
Settings: 250 g ai/ha; flooded paddy test; visual rating on 0 to 100 scale (0 no effect, 100 complete control) after 13 to 15 days
In short: (§2)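 Ratings are visual, 0–100 (100 = complete control), taken versus untreated controls 13 to 15 days after treatment in the greenhouse. Compound went straight into paddy water held 3 cm above soil, applied to 2-leaf-stage plants of four species.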

Row | Compound | Plant response rating, Flood, Barnyardgrass
9 | Cc1cccc(-c2ncc(C(=O)C3=C(O)CCCC3=O)c(=O)n2-c2ccccc2C)c1 [Compound 210] | 40

Same assay, conditions: Flood (flooded paddy test), 62 g ai/ha; scale of 0 to 100 where 0 is no effect and 100 is complete control; 13 to 15 days

Row | Compound | Plant response rating, Barnyardgrass
10 | Cc1cccc(-c2ncc(C(=O)C3=C(O)CCCC3=O)c(=O)n2-c2ccccc2C)c1 [Compound 210] | 0

Same assay, conditions: Flood (flooded paddy test), 125 g ai/ha; scale 0 to 100, 0 is no effect, 100 is complete control; 13 to 15 days

Row | Compound | Plant response rating, Barnyardgrass
11 | Cc1cccc(-c2ncc(C(=O)C3=C(O)CCCC3=O)c(=O)n2-c2ccccc2C)c1 [Compound 210] | 20

Same assay, conditions: Flood, 31 g ai/ha; scale 0 to 100 (0 no effect, 100 complete control)

Row | Compound | Barnyardgrass plant response rating
12 | Cc1cccc(-c2ncc(C(=O)C3=C(O)CCCC3=O)c(=O)n2-c2ccccc2C)c1 [Compound 210] | 0

System: ducksalad (Heteranthera limosa)
Assay: Test B flooded paddy test
Assay type: in vivo
Settings: 250 g ai/ha; flooded paddy test; visual rating on 0 to 100 scale (0 no effect, 100 complete control) after 13 to 15 days
In short: as §2

Row | Compound | Plant response rating, Flood, Ducksalad
13 | Cc1cccc(-c2ncc(C(=O)C3=C(O)CCCC3=O)c(=O)n2-c2ccccc2C)c1 [Compound 210] | 90

Same assay, conditions: Flood (flooded paddy test), 62 g ai/ha; scale of 0 to 100 where 0 is no effect and 100 is complete control; 13 to 15 days

Row | Compound | Plant response rating, Ducksalad
14 | Cc1cccc(-c2ncc(C(=O)C3=C(O)CCCC3=O)c(=O)n2-c2ccccc2C)c1 [Compound 210] | 85

Same assay, conditions: Flood (flooded paddy test), 125 g ai/ha; scale 0 to 100, 0 is no effect, 100 is complete control; 13 to 15 days

Row | Compound | Plant response rating, Ducksalad
15 | Cc1cccc(-c2ncc(C(=O)C3=C(O)CCCC3=O)c(=O)n2-c2ccccc2C)c1 [Compound 210] | 90

Same assay, conditions: Flood, 31 g ai/ha; scale 0 to 100 (0 no effect, 100 complete control)

Row | Compound | Ducksalad plant response rating
16 | Cc1cccc(-c2ncc(C(=O)C3=C(O)CCCC3=O)c(=O)n2-c2ccccc2C)c1 [Compound 210] | 75

System: rice (Oryza sativa)
Assay: Test B flooded paddy test
Assay type: in vivo
Settings: 250 g ai/ha; flooded paddy test; visual rating on 0 to 100 scale (0 no effect, 100 complete control) after 13 to 15 days
In short: as §2

Row | Compound | Plant response rating, Flood, Rice
17 | Cc1cccc(-c2ncc(C(=O)C3=C(O)CCCC3=O)c(=O)n2-c2ccccc2C)c1 [Compound 210] | 25

Same assay, conditions: Flood (flooded paddy test), 62 g ai/ha; scale of 0 to 100 where 0 is no effect and 100 is complete control; 13 to 15 days

Row | Compound | Plant response rating, Rice
18 | Cc1cccc(-c2ncc(C(=O)C3=C(O)CCCC3=O)c(=O)n2-c2ccccc2C)c1 [Compound 210] | 0

Same assay, conditions: Flood (flooded paddy test), 125 g ai/ha; scale 0 to 100, 0 is no effect, 100 is complete control; 13 to 15 days

Row | Compound | Plant response rating, Rice
19 | Cc1cccc(-c2ncc(C(=O)C3=C(O)CCCC3=O)c(=O)n2-c2ccccc2C)c1 [Compound 210] | 20

Same assay, conditions: Flood, 31 g ai/ha; scale 0 to 100 (0 no effect, 100 complete control)

Row | Compound | Rice plant response rating
20 | Cc1cccc(-c2ncc(C(=O)C3=C(O)CCCC3=O)c(=O)n2-c2ccccc2C)c1 [Compound 210] | 0

System: umbrella sedge (Cyperus difformis)
Assay: Test B flooded paddy test
Assay type: in vivo
Settings: 250 g ai/ha; flooded paddy test; visual rating on 0 to 100 scale (0 no effect, 100 complete control) after 13 to 15 days
In short: as §2

Row | Compound | Plant response rating, Flood, Sedge, Umbrella
21 | Cc1cccc(-c2ncc(C(=O)C3=C(O)CCCC3=O)c(=O)n2-c2ccccc2C)c1 [Compound 210] | 80

Same assay, conditions: Flood (flooded paddy test), 62 g ai/ha; scale of 0 to 100 where 0 is no effect and 100 is complete control; 13 to 15 days

Row | Compound | Plant response rating, Sedge, Umbrella
22 | Cc1cccc(-c2ncc(C(=O)C3=C(O)CCCC3=O)c(=O)n2-c2ccccc2C)c1 [Compound 210] | 75

Same assay, conditions: Flood (flooded paddy test), 125 g ai/ha; scale 0 to 100, 0 is no effect, 100 is complete control; 13 to 15 days

Row | Compound | Plant response rating, Sedge, Umbrella
23 | Cc1cccc(-c2ncc(C(=O)C3=C(O)CCCC3=O)c(=O)n2-c2ccccc2C)c1 [Compound 210] | 75

Same assay, conditions: Flood, 31 g ai/ha; scale 0 to 100 (0 no effect, 100 complete control)

Row | Compound | Sedge, Umbrella plant response rating
24 | Cc1cccc(-c2ncc(C(=O)C3=C(O)CCCC3=O)c(=O)n2-c2ccccc2C)c1 [Compound 210] | 50
